# PubChem BioAssay (NCI)
#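 Protocol summary: plate cells (96-well), add compound at 5 concentrations, incubate 48 h, interpolate endpoints linearly. TGI: total growth inhibition.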
# Assays:
# Experiment in all cases: DTP human tumour cell line panel, 48 h
# 786-0 renal = system: 786-0 renal
# A498 renal = system: A498 renal
# A549 NSCLC = system: A549 NSCLC
# ACHN renal = system: ACHN renal
# BT-549 breast = system: BT-549 breast
# CAKI-1 renal = system: CAKI-1 renal
# CCRF-CEM leukemia = system: CCRF-CEM leukemia
# COLO 205 colon = system: COLO 205 colon
# DU-145 prostate = system: DU-145 prostate
# EKVX NSCLC = system: EKVX NSCLC
# HCC-2998 colon = system: HCC-2998 colon
# HCT-116 colon = system: HCT-116 colon
# HCT-15 colon = system: HCT-15 colon
# HOP-62 NSCLC = system: HOP-62 NSCLC
# HOP-92 NSCLC = system: HOP-92 NSCLC
# K-562 leukemia = system: K-562 leukemia
# KM12 colon = system: KM12 colon
# M14 melanoma = system: M14 melanoma
# MDA-MB-435 = system: MDA-MB-435
# MDA-N = system: MDA-N
# MOLT-4 leukemia = system: MOLT-4 leukemia
# NCI-H23 lung = system: NCI-H23 lung
# NCI-H460 lung = system: NCI-H460 lung
# NCI-H522 lung = system: NCI-H522 lung
# NCI/ADR-RES ovarian = system: NCI/ADR-RES ovarian
# OVCAR-3 ovarian = system: OVCAR-3 ovarian
# OVCAR-4 ovarian = system: OVCAR-4 ovarian
# OVCAR-5 ovarian = system: OVCAR-5 ovarian
# OVCAR-8 ovarian = system: OVCAR-8 ovarian
# RPMI-8226 leukemia = system: RPMI-8226 leukemia
# RXF 393 renal = system: RXF 393 renal
# SF-268 CNS = system: SF-268 CNS
# SF-295 CNS = system: SF-295 CNS
# SF-539 CNS = system: SF-539 CNS
# SK-MEL-28 melanoma = system: SK-MEL-28 melanoma
# SK-OV-3 ovarian = system: SK-OV-3 ovarian
# SN12C renal = system: SN12C renal
# SNB-19 CNS = system: SNB-19 CNS
# SNB-75 CNS = system: SNB-75 CNS
# SR leukemia = system: SR leukemia
# SW-620 colon = system: SW-620 colon
# T-47D breast = system: T-47D breast
# UACC-257 melanoma = system: UACC-257 melanoma
# UACC-62 melanoma = system: UACC-62 melanoma
# UO-31 renal = system: UO-31 renal
# HL-60(TB) leukemia = system: HL-60(TB) leukemia
# HS 578T breast = system: HS 578T breast
# HT29 colon = system: HT29 colon
# IGROV1 ovarian = system: IGROV1 ovarian
# LOX IMVI melanoma = system: LOX IMVI melanoma
# MALME-3M melanoma = system: MALME-3M melanoma
# MCF7 breast = system: MCF7 breast
# MDA-MB-231 breast = system: MDA-MB-231 breast
# NCI-H226 lung = system: NCI-H226 lung
# PC-3 prostate = system: PC-3 prostate
# SK-MEL-2 melanoma = system: SK-MEL-2 melanoma
# SK-MEL-5 melanoma = system: SK-MEL-5 melanoma
# TK-10 renal = system: TK-10 renal
# U251 CNS = system: U251 CNS
smiles,measurement,setting,value
Cc1n[nH]c(=O)n1/N=C/c1ccc(Cl)cc1,TGI,786-0 renal,> 100 µM
same,TGI,A498 renal,> 100 µM
same,TGI,A549 NSCLC,> 100 µM
same,TGI,ACHN renal,> 100 µM
same,TGI,BT-549 breast,> 100 µM
same,TGI,CAKI-1 renal,> 100 µM
same,TGI,CCRF-CEM leukemia,94.8 µM
same,TGI,COLO 205 colon,> 100 µM
same,TGI,DU-145 prostate,> 100 µM
same,TGI,EKVX NSCLC,72.5 µM
same,TGI,HCC-2998 colon,> 100 µM
same,TGI,HCT-116 colon,> 100 µM
same,TGI,HCT-15 colon,> 100 µM
same,TGI,HOP-62 NSCLC,> 100 µM
same,TGI,HOP-92 NSCLC,> 100 µM
same,TGI,K-562 leukemia,> 100 µM
same,TGI,KM12 colon,> 100 µM
same,TGI,M14 melanoma,> 100 µM
same,TGI,MDA-MB-435,> 100 µM
same,TGI,MDA-N,> 100 µM
same,TGI,MOLT-4 leukemia,> 100 µM
same,TGI,NCI-H23 lung,> 100 µM
same,TGI,NCI-H460 lung,> 100 µM
same,TGI,NCI-H522 lung,> 100 µM
same,TGI,NCI/ADR-RES ovarian,> 100 µM
same,TGI,OVCAR-3 ovarian,> 100 µM
same,TGI,OVCAR-4 ovarian,> 100 µM
same,TGI,OVCAR-5 ovarian,> 100 µM
same,TGI,OVCAR-8 ovarian,> 100 µM
same,TGI,RPMI-8226 leukemia,> 100 µM
same,TGI,RXF 393 renal,72.3 µM
same,TGI,SF-268 CNS,> 100 µM
same,TGI,SF-295 CNS,> 100 µM
same,TGI,SF-539 CNS,> 100 µM
same,TGI,SK-MEL-28 melanoma,> 100 µM
same,TGI,SK-OV-3 ovarian,> 100 µM
same,TGI,SN12C renal,> 100 µM
same,TGI,SNB-19 CNS,> 100 µM
same,TGI,SNB-75 CNS,> 100 µM
same,TGI,SR leukemia,> 100 µM
same,TGI,SW-620 colon,> 100 µM
same,TGI,T-47D breast,> 100 µM
same,TGI,UACC-257 melanoma,> 100 µM
same,TGI,UACC-62 melanoma,> 100 µM
same,TGI,UO-31 renal,> 100 µM
N#CCCC1C(C#N)C2(Cl)CC1(Cl)C(Cl)=C2Cl (stereo not drawn),TGI,A498 renal,> 10 µM
same,TGI,A549 NSCLC,> 10 µM
same,TGI,ACHN renal,> 10 µM
same,TGI,CAKI-1 renal,> 10 µM
same,TGI,CCRF-CEM leukemia,> 10 µM
same,TGI,COLO 205 colon,> 10 µM
same,TGI,DU-145 prostate,> 10 µM
same,TGI,EKVX NSCLC,> 10 µM
same,TGI,HCC-2998 colon,> 10 µM
same,TGI,HCT-116 colon,> 10 µM
same,TGI,HCT-15 colon,> 10 µM
same,TGI,HL-60(TB) leukemia,> 10 µM
same,TGI,HOP-62 NSCLC,> 10 µM
same,TGI,HS 578T breast,> 10 µM
same,TGI,HT29 colon,> 10 µM
same,TGI,IGROV1 ovarian,> 10 µM
same,TGI,K-562 leukemia,> 10 µM
same,TGI,KM12 colon,> 10 µM
same,TGI,LOX IMVI melanoma,> 10 µM
same,TGI,M14 melanoma,> 10 µM
same,TGI,MALME-3M melanoma,> 10 µM
same,TGI,MCF7 breast,> 10 µM
same,TGI,MDA-MB-231 breast,> 10 µM
same,TGI,MDA-MB-435,> 10 µM
same,TGI,MDA-N,> 10 µM
same,TGI,MOLT-4 leukemia,> 10 µM
same,TGI,NCI-H226 lung,> 10 µM
same,TGI,NCI-H23 lung,> 10 µM
same,TGI,NCI-H460 lung,> 10 µM
same,TGI,NCI-H522 lung,> 10 µM
same,TGI,NCI/ADR-RES ovarian,> 10 µM
same,TGI,OVCAR-3 ovarian,> 10 µM
same,TGI,OVCAR-4 ovarian,> 10 µM
same,TGI,OVCAR-5 ovarian,> 10 µM
same,TGI,OVCAR-8 ovarian,> 10 µM
same,TGI,PC-3 prostate,> 10 µM
same,TGI,RPMI-8226 leukemia,> 10 µM
same,TGI,RXF 393 renal,> 10 µM
same,TGI,SF-268 CNS,> 10 µM
same,TGI,SF-295 CNS,> 10 µM
same,TGI,SF-539 CNS,> 10 µM
same,TGI,SK-MEL-2 melanoma,> 10 µM
same,TGI,SK-MEL-28 melanoma,> 10 µM
same,TGI,SK-MEL-5 melanoma,> 10 µM
same,TGI,SK-OV-3 ovarian,> 10 µM
same,TGI,SN12C renal,> 10 µM
same,TGI,SNB-19 CNS,> 10 µM
same,TGI,SNB-75 CNS,> 10 µM
same,TGI,SW-620 colon,> 10 µM
same,TGI,T-47D breast,> 10 µM
same,TGI,TK-10 renal,> 10 µM
same,TGI,U251 CNS,> 10 µM
same,TGI,UACC-62 melanoma,> 10 µM
same,TGI,UO-31 renal,> 10 µM
c1csc(-c2ccc(-c3cccc4nsnc34)s2)c1,TGI,786-0 renal,> 100 µM
same,TGI,A498 renal,> 100 µM
same,TGI,A549 NSCLC,> 100 µM
same,TGI,ACHN renal,> 100 µM
same,TGI,BT-549 breast,> 100 µM
same,TGI,CAKI-1 renal,> 100 µM
same,TGI,CCRF-CEM leukemia,69.3 µM
same,TGI,COLO 205 colon,> 100 µM
same,TGI,DU-145 prostate,> 100 µM
same,TGI,EKVX NSCLC,> 100 µM
same,TGI,HCC-2998 colon,> 100 µM
same,TGI,HCT-116 colon,> 100 µM
same,TGI,HCT-15 colon,> 100 µM
same,TGI,HOP-62 NSCLC,> 100 µM
same,TGI,K-562 leukemia,> 100 µM
same,TGI,KM12 colon,> 100 µM
same,TGI,LOX IMVI melanoma,> 100 µM
same,TGI,M14 melanoma,> 100 µM
same,TGI,MALME-3M melanoma,> 100 µM
same,TGI,MCF7 breast,> 100 µM
same,TGI,MDA-MB-231 breast,> 100 µM
same,TGI,MDA-MB-435,> 100 µM
same,TGI,MDA-N,> 100 µM
same,TGI,MOLT-4 leukemia,39.2 µM
same,TGI,NCI-H226 lung,> 100 µM
same,TGI,NCI-H23 lung,> 100 µM
same,TGI,NCI-H460 lung,> 100 µM
same,TGI,NCI-H522 lung,> 100 µM
same,TGI,NCI/ADR-RES ovarian,> 100 µM
same,TGI,OVCAR-3 ovarian,> 100 µM
same,TGI,OVCAR-4 ovarian,> 100 µM
same,TGI,OVCAR-5 ovarian,> 100 µM
same,TGI,OVCAR-8 ovarian,> 100 µM
same,TGI,PC-3 prostate,> 100 µM
same,TGI,RPMI-8226 leukemia,> 100 µM
same,TGI,RXF 393 renal,> 100 µM
same,TGI,SF-268 CNS,> 100 µM
same,TGI,SF-295 CNS,> 100 µM
same,TGI,SF-539 CNS,> 100 µM
same,TGI,SK-MEL-2 melanoma,> 100 µM
same,TGI,SK-MEL-28 melanoma,> 100 µM
same,TGI,SK-MEL-5 melanoma,> 100 µM
same,TGI,SK-OV-3 ovarian,> 100 µM
same,TGI,SN12C renal,> 100 µM
same,TGI,SNB-19 CNS,> 100 µM
same,TGI,SNB-75 CNS,> 100 µM
same,TGI,SR leukemia,52.2 µM
same,TGI,SW-620 colon,> 100 µM
same,TGI,T-47D breast,> 100 µM
same,TGI,TK-10 renal,> 100 µM
same,TGI,U251 CNS,> 100 µM
same,TGI,UACC-257 melanoma,> 100 µM
same,TGI,UACC-62 melanoma,> 100 µM
same,TGI,UO-31 renal,> 100 µM
